{"source": "patent US10543240B2", "about": "“Topical composition containing glycerin and yeast extract” (Johnson & Johnson Consumer Inc., priority 2016, dated 2020)", "system": "S. epidermis (ATCC 12228)", "experiment": "Growth of S. epidermidis under aerobic conditions, time-to-detection (BacT/Alert 3D system)", "assay_type": "cell-based, Staphylococcus epidermidis", "details": "S. epidermidis inoculated at 1000 CFU/mL in standard aerobic bottles; test material in PBS; average of three samples; PBS control = 100", "text": "The ability of four test materials to grow S. epidermis (ATCC 12228) under aerobic conditions was investigated. The materials were: 1) phosphate buffered saline buffer solution (PBS), 2) PBS containing 5% of an aqueous solution containing 0.13 weight percent of an extract of Pichia anomala grown on kiwi, 3) PBS containing 3% glycerol, and 4) PBS containing both 5% of an aqueous solution containing 0.13 weight percent of an extract of Pichia anomala grown on kiwi and 3% glycerol. The BacT/Alert 3D system (BioMerieux Inc.) was used to determine the time-to-detection (“TTD”) of S. epidermidis according to the manufacturer's instruction. S. epidermidis were inoculated at concentrations of 1000 colony-forming units (CFU)/mL into standard aerobic bottles (BioMerieux Inc.). The test materials were prepared in PBS and injected into the standard aerobic bottles at the indicated final concentration with the volume of 1 ml. Standard aerobic bottles inoculated with S. epidermidis only and 10 ml of PBS was used as control. Bottles were then inserted into the BacT/Alert 3D system until stationary growth phase. The TTD values were automatically calculated by the BacT/Alert 3D according to the growth algorism. Three samples were tested for each test material and the resulted were averaged. Relative Time-to-Detection (RTTD) was calculated as (TTD treatment-TTD control)/TTD control*100.", "data": [{"smiles": "OCC(O)CO", "note": "[3% Glycerol, glycerol]", "values": [{"measurement": "RTTD (Relative Time-to-Detection)", "value": 92.56}]}]}
